Measured values taken from patent US8735406B2, “8-oxodihydropurine derivative” (Dainippon Sumitomo Pharma Co., Ltd., priority 2009, dated 2014).
Like-named read-outs stand apart in the source and are kept apart here.

Biological target: T1, FAAH (Rattus norvegicus, UniProt P97612)
T1 construct: Preparation of Rat Brain Membranes Preparations (FAAH Enzyme Solution); from tissue; host or cells: rat cerebrum (brain membrane preparation)
T1 sequence (P97612 1-579): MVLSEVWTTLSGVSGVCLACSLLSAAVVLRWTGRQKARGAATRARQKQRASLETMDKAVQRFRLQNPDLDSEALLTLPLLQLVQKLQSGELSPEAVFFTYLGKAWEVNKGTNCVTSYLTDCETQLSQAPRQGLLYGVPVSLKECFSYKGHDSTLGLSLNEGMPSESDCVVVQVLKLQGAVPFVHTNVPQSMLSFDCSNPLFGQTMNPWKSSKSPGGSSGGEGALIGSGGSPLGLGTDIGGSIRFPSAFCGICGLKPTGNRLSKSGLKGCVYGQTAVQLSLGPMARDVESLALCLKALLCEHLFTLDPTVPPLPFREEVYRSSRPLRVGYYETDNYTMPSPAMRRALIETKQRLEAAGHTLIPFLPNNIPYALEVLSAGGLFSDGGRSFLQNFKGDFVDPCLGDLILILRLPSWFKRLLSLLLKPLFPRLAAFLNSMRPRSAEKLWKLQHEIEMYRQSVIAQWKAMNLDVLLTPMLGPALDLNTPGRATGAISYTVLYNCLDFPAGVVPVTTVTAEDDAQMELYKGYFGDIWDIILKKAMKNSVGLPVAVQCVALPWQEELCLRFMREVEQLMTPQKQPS
Test: Determination of FAAH inhibitory activity in rat (rat brain membrane preparations, [3H]-anandamide hydrolysis)
Assay type: biochemical
Conditions: rat brain membrane preparations; for IC50: read-out: FAAH Inhibition IC50
In short: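 Rat cerebrum membranes (100 μg/mL protein) preincubated 10 min at 37 °C with compound (1% DMSO) in pH 7.6 Tris buffer with 1.5% BSA. Substrate 2 nM [3H]-anandamide plus 2 μM anandamide added for 10 min at 37 °C. [3H]-ethanolamine in the aqueous phase after chloroform/methanol extraction was scintillation counted; IC50 over 0.1 nM–1 μM.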

[1] = at 100 nM, read-out: FAAH Inhibition Inhibition Rate at 100 nM
[2] = 100 nM test substance, read-out: FAAH Inhibition, Inhibition Rate at 100 nM

| inhibition at 0.1 µM [1] [%] | IC50 [nM] | inhibition at 0.1 µM [2] [%] | IC50 (test substance 0.1 nM to 1 μM) [nM] | Structure (SMILES) |
| --- | --- | --- | --- | --- |
| – | – | 102 | 6 | COc1ccc(-c2ncc3c(n2)n(C)c(=O)n3C(=O)N2CCCC2)cc1 [compound 174] |
| – | – | 101 | 7 | CCOc1cccc(-c2ncc3c(n2)n(C)c(=O)n3C(=O)N2CCCC2)c1 [compound 175] |
| – | – | 100 | 10 | CCOc1ccc(-c2ncc3c(n2)n(C)c(=O)n3C(=O)N2CCCC2)cc1 [compound 176] |
| – | – | 78 | 58 | Cn1c(=O)n(C(=O)N2CCCC2)c2cnc(-c3ccc(OC(F)(F)F)cc3)nc21 [compound 177] |
| – | – | 96 | 42 | Cn1c(=O)n(C(=O)N2CCCC2)c2cnc(-c3ccc(C(F)(F)F)cc3)nc21 [compound 178] |
| – | – | 97 | 44 | Cn1c(=O)n(C(=O)N2CCCC2)c2cnc(-c3ccc(-c4ccccc4)cc3)nc21 [compound 179] |
| – | – | 99 | 38 | CCCc1ccc(-c2ncc3c(n2)n(C)c(=O)n3C(=O)N2CCCC2)cc1 [compound 180] |
| – | – | 101 | 4 | Cn1c(=O)n(C(=O)N2CCCC2)c2cnc(-c3ccc(C#N)cc3)nc21 [compound 181] |

The remaining lines, values behind:

| Structure (SMILES) | inhibition at 0.1 µM [1] [%] | IC50 [nM] | inhibition at 0.1 µM [2] [%] | IC50 (test substance 0.1 nM to 1 μM) [nM] |
| --- | --- | --- | --- | --- |
| CCn1c(=O)n(C(=O)N2CC(c3cccc(F)c3)C2)c2cnc(COC)nc21 [Example 657, 9-Ethyl-7-{[3-(3-fluorophenyl)azetidin-1-yl]carbonyl}-2-(methoxymethyl)-7,9-dihydro-8H-purine-8-one] | 119 | 9 | – | – |
| CCCn1c(=O)n(C(=O)N2CC(c3ccccc3)C2)c2cnc(COC)nc21 [Example 658, 2-(Methoxymethyl)-7-[(3-phenylazetidin-1-yl)carbonyl]-9-propyl-7,9-dihydro-8H-purine-8-one] | 86 | 15 | – | – |
| CCCn1c(=O)n(C(=O)N2CC(c3ccc(F)cc3)C2)c2cnc(COC)nc21 [Example 659, 7-{[3-(4-Fluorophenyl)azetidin-1-yl]carbonyl}-2-(methoxymethyl)-9-propyl-7,9-dihydro-8H-purine-8-one] | 112 | 6 | – | – |
| CCCn1c(=O)n(C(=O)N2CC(c3cccc(F)c3)C2)c2cnc(COC)nc21 [Example 660, 7-{[3-(3-Fluorophenyl)azetidin-1-yl]carbonyl}-2-(methoxymethyl)-9-propyl-7,9-dihydro-8H-purine-8-one] | 121 | 10 | – | – |
| CCCn1c(=O)n(C(=O)N2CC(c3ccccc3F)C2)c2cnc(COC)nc21 [Example 661, 7-{[3-(2-Fluorophenyl)azetidin-1-yl]carbonyl}-2-(methoxymethyl)-9-propyl-7,9-dihydro-8H-purine-8-one] | 82 | 36 | – | – |
| CCCn1c(=O)n(C(=O)N2CC(c3cccc(C(F)(F)F)c3)C2)c2cnc(COC)nc21 [Example 662, 2-(Methoxymethyl)-9-propyl-7-({3-[3-(trifluoromethyl)phenyl]azetidin-1-yl}carbonyl)-7,9-dihydro-8H-purine-8-one] | 97 | 8 | – | – |
| Cn1c(=O)n(C(=O)N2CCCC2)c2cnc(/C=C/c3ccc(C(F)(F)F)cc3)nc21 [compound 3] | – | – | 59 | 86 |
| Cn1c(=O)n(C(=O)N2CCCC2)c2cnc(/C=C/c3cccc(C(F)(F)F)c3)nc21 [compound 10] | – | – | 23 | > 100 |
| Cn1c(=O)n(C(=O)N2CCCC2)c2cnc(CCc3cccc(F)c3)nc21 [compound 13] | – | – | 91 | 42 |
| COc1cccc(CCc2ncc3c(n2)n(C)c(=O)n3C(=O)N2CCCC2)c1 [compound 15] | – | – | 75 | 63 |
| Cc1ccccc1-c1ncc2c(n1)n(C)c(=O)n2C(=O)N1CCCC1 [compound 169] | – | – | 78 | 41 |
| COc1ccccc1-c1ncc2c(n1)n(C)c(=O)n2C(=O)N1CCCC1 [compound 172] | – | – | 67 | 69 |
